Test results from PMC10350924, “Design, Synthesis, and Pharmacological Characterization of a Potent Soluble Epoxide Hydrolase Inhibitor for the Treatment of Acute Pancreatitis” (Journal of Medicinal Chemistry, 2023).
Where “and” joins values, the source holds several entries; their conditions need not be identical. Equal values may be shown once.

What was measured:
5-LOX = target: T1, 5-LOX (Homo sapiens, UniProt P09917); test: 5-LOX product formation in human activated PMNL (A23187); type: cell-based; design: Freshly isolated PMNL (5 × 10^6) suspended in PBS pH 7.4 with 1 mg/mL glucose were preincubated with the test compounds; endogenous in cells; host or cells: human PMNL from donor blood; remaining activity: dose or concentration left out as unconfirmed; details: for remaining activity at 10 µM: read-out: 5-LOX residual activity in PMNL (%) at 10 μM; for remaining activity: PMNL, read-out: 5-LO residual activity in PMNL (%)
T1 sequence (P09917 1-674): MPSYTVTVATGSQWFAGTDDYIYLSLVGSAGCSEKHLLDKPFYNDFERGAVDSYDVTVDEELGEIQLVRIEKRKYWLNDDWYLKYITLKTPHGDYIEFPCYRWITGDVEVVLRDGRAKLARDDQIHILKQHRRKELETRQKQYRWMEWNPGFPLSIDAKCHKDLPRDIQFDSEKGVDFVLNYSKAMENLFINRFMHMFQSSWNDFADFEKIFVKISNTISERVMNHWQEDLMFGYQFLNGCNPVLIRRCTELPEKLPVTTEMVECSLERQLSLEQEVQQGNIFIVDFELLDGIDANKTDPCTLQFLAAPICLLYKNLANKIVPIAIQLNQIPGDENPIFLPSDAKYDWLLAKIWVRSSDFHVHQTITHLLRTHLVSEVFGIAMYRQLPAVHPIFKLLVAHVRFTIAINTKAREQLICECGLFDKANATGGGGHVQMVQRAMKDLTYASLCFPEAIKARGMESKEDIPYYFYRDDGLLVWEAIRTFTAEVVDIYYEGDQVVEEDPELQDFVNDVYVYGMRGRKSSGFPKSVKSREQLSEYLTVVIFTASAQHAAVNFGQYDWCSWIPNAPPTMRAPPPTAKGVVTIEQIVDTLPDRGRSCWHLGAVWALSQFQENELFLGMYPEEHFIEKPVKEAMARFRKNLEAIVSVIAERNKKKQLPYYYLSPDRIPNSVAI
Protocol: Human PMNL were freshly isolated from leukocyte concentrates that were obtained from the Institute for Transfusion Medicine of the University Hospital Jena (Germany). […] These volunteers regularly donated blood (every 8–12 weeks) and were physically inspected by a clinician. […] Leukocytes were concentrated by centrifugation (4000g/20 min/20 °C) of freshly withdrawn blood. […] PMNL were obtained from the cell pellet. […] The reaction was stopped with an equal volume of methanol containing PGB1 (200 ng) as internal standard. Major 5-LOX products (all-trans isomers of LTB and 5-HETE, and additionally LTB4) were extracted and analyzed by RP-HPLC as described for the determination of cell-free 5-LOX activity.

[1] = Chemical stability in phosphate buffer pH 7.4; type: physicochemical; details: 5 μM
Text: The chemical and metabolic stabilities of compounds 6, 27, 28, 30, and 36 were monitored using a UHPLC system (Shimadzu, Kyoto, Japan) consisting of a CBM-40 Lite controller, two LC-40B X3 solvent delivery modules, an SPD-M40 photodiode array detector, a CTO-30A column oven and, a SIL-40AC X3 autosampler. The UHPLC system was coupled online to LCMS-2020 single quadrupole mass spectrometer (Shimadzu, Kyoto, Japan) equipped with an electrospray ionization (ESI) source operating in positive mode.
The chromatographic separation was accomplished on a Luna Omega 1.6 μm Polar C18 100 Å, 100 mm × 2.1 mm (Phenomenex, Bologna, Italy) maintained at 40 °C. The optimal mobile phase consisted of 0.1% HCOOH/H2O v/v (A) and 0.1% HCOOH/ACN v/v (B) delivered at a constant flow rate of 0.3 mL min^–1. Analysis was performed in gradient elution as follows: 0–8.00 min, 30–95% B; 8.00–10.00 min, isocratic to 95% B, then 5 min for column re-equilibration.
The ESI was operated in positive mode, with the following parameters: interface temperature, 350 °C; interface voltage, 4.5 kV; DL (desolvation line) temperature, 250 °C; block heater temperature, 200 °C; nebulizing gas flow (N2), 1.5 L min^–1; drying gas pressure, 15 L min^–1. Quantification was performed in SIM (single-ion monitoring) mode.
For the calibration curves, the primary stock solutions (10 mM) of compounds 6, 27, 28, 30, and 36 were prepared in DMSO. The working standard solutions were prepared by serial dilution of the stock solutions in methanol to obtain necessary concentrations (0.25–10 μM). A solution containing an internal standard (IS: tolbutamide) was prepared at 10 μM in methanol. Quantitation of compounds 6, 27, 28, 30, and 36 was performed using linear regression of the response ratios obtained from the calibration curve to calculate the corresponding amount (6: y = 1.97175x + 0.53508, R^2 = 0.9998; 27: y = 2.90980x + 0.03831, R^2 = 0.9993; 28: y = 2.05962x + 0.02242, R^2 = 0.9994; 30: y = 1.98080x + 0.14962, R^2 = 0.9997; 36: y = 4.59526x – 0.13459, R^2 = 0.9991).
1.25 μL of test compounds (5 μM final incubation concentration) was incubated in 200 μL of phosphate buffer at pH 7.4. At each specified time point (0, 0.5, 1, 1.5, and 2 h), the analyte was removed into 200 μL of ice-cold methanol containing internal standard (tolbutamide) to stop degradation. Finally, the concentration of the test compound was quantified by LC-MS. The percentage of compound remaining (relative to the 0 min time point) at the individual time points is then reported. All experiments were performed in triplicate.

[2] = 0.5 h, compound remaining relative to 0 min

Row | Structure (SMILES) | remaining activity at 10 µM (5-LOX; human activated PMNL) | remaining activity (5-LOX) | IC50 (5-LOX; human activated PMNL) | chemical stability in phosphate buffer (pH 7.4) [1, 2] | chemical stability in phosphate buffer (pH 7.4) ([1]; 1.0 h) | chemical stability in phosphate buffer (pH 7.4) ([1]; 1.5 h) | chemical stability in phosphate buffer (pH 7.4) ([1]; 2.0 h)
1 | O=C(Nc1ccc2c(c1)CCN2Cc1ccc(F)cc1)NC12C[C@H]3C[C@@H](C1)C[C@@H](C2)C3 [Compound 6, 1-((3S,5S,7S)-Adamantan-1-yl)-3-(1-(4-fluorobenzyl)indolin-5-yl)urea] | 35.4 ± 3.1% | 35.4 ± 3.1% | 0.24 µM and 0.243 µM | 97.9 ± 3.5% | 100.7 ± 4.3% | 100.5 ± 3.5% | 102.4 ± 0.1%
2 | O=C(NCC12C[C@H]3C[C@@H](C1)C[C@@H](C2)C3)Nc1ccc2c(ccn2C(=O)c2ccc(F)cc2)c1 [Compound 36, 1-(((3R,5R,7R)-Adamantan-1-yl)methyl)-3-(1-(4-fluorobenzoyl)-1H-indol-5-yl)urea] | 58.1 ± 5.5% | 58.1 ± 5.5% | – | 96.3 ± 3.2% | 95.2 ± 1.8% | 99.8 ± 2.1% | 92.4 ± 2.0%
3 | CC(C)c1ccc(Cn2ccc3cc(NC(=O)NCC45C[C@H]6C[C@@H](C4)C[C@@H](C5)C6)ccc32)cc1 [Compound 28, 1-(((3R,5R,7R)-Adamantan-1-yl)methyl)-3-(1-(4-isopropylbenzyl)-1H-indol-5-yl)urea] | 93.6 ± 4.8% | 93.6 ± 4.8% | – | 102.0 ± 2.7% | 101.7 ± 1.9% | 99.7 ± 2.3% | 102.4 ± 1.8%
4 | O=C(NCC12C[C@H]3C[C@@H](C1)C[C@@H](C2)C3)Nc1ccc2c(ccn2Cc2ccc(F)cc2)c1 [Compound 27, 1-(((3R,5R,7R)-Adamantan-1-yl)methyl)-3-(1-(4-fluorobenzyl)-1H-indol-5-yl)urea] | 59.4 ± 6.7% | 59.4 ± 6.7% | – | 99.2 ± 1.7% | 95.5 ± 4.5% | 98.9 ± 0.2% | 96.4 ± 0.5%
5 | O=C(NCC12C[C@H]3C[C@@H](C1)C[C@@H](C2)C3)Nc1ccc2c(ccn2CCc2ccc(F)cc2)c1 [Compound 30, 1-(((3R,5R,7R)-Adamantan-1-yl)methyl)-3-(1-(4-fluorophenethyl)-1H-indol-5-yl)urea] | 65.1 ± 6.2% | 65.1 ± 6.2% | – | 102.5 ± 1.1% | 100.3 ± 1.9% | 99.6 ± 0.2% | 102.4 ± 3.5%
